Entries after “also recorded” stand apart in the source; their conditions may differ.
Assays:
[1] = system: Ewing's sarcoma; assay: Confocal microscopy apoptosis; assay type: cell-based, human; settings: 200 ng/ml; 24 hrs
Protocol: (§1) More extensive studies of the effects of MA and with truncated synthetic forms of MA (MAS) on a wide range of other human tumor cells were carried out using three-dimensional confocal microscopy. Cells were cultured and then seeded onto gelatinized glass chamber slides and incubated 24 hrs with the various test materials. The slides were then fixed with formalin and treated serially with Triton X-100 (0.01%) for 10 min at 25°, 0.4 ug/ml fluorescein isothiocyanate (FITC)-labeled Phalloidin (Sigma Chem. Co.) at room temperature for 30 min to bind actin, washed with PBS and the DNA stained with Propidium iodide (PI) (0.5 ug·ml) (Sigma Chemical Co.), for 15 min. The stained slides were washed and mounted on slow fade (Molecular Probes, Inc., Eugene, Oreg.) and examined through a dual emission filter XF53 (Omega, Inc., Brattlesboro, Va.) by fluorescent microscopy. In some experiments only DNA staining was performed. In these instances Triton X-100 was not used. The slides were stained with PI and examined for cell morphology and chromatin degradation under 3D confocal microscopy.

[2] = system: carcinoma of the breast HTB124; assay: Confocal microscopy apoptosis; assay type: cell-based, human; settings: 200 ng/ml; 24 hrs
Protocol: as §1

[3] = system: carcinoma of the colon; assay: Confocal microscopy apoptosis; assay type: cell-based, human; settings: 200 ng/ml; 24 hrs
Protocol: as §1

[4] = system: carcinoma of the kidney HTB46; assay: Confocal microscopy apoptosis; assay type: cell-based, human; settings: 200 ng/ml; 24 hrs
Protocol: as §1

[5] = system: carcinoma of the pancreas CRL 1682; assay: Confocal microscopy apoptosis; assay type: cell-based, human; settings: 200 ng/ml; 24 hrs
Protocol: as §1

[6] = system: normal human cells; assay: Effects on normal cells in vitro (confocal microscopy, trypan blue, MTT, 3H-thymidine); assay type: cell-based
Protocol: as §1
Untreated cells (first line) show normal morphology. The confocal microscopy results also verified the specificity of MA in killing tumor cells.
To be certain that this specificity for tumor cells was not simply the consequences of a difference between cycling and non-cycling cells, the following cell-types were also used: proliferating human normal fibroblasts, endothelial cells (HUVEC), and PHA-stimulated lymphocytes. […] In fact, MA actually promoted growth of some of these cells.
(§2) These cells included human, primate, and rodent bone marrow, PBMCs, and human CD4+ T-cells, CD8+ T-cells, CD34+ cells, and macrophages enriched from normal PBMCs, as well as normal human endothelial cells and fibroblasts. Cytotoxicity was assessed by 3H-thymidine incorporation, trypan blue staining, cell numbers, and morphological examination by light and confocal microscopy. Hematopoiesis was not only unimpaired it was promoted. […] These studies were chiefly performed with rats and mice, but also included rhesus macaques treated with 0.2 mg/kg for several months. Like the in vitro results, hematopoiesis was not impaired but instead enhanced.

[7] = system: primary human tumor cells; assay: Short-term cultured primary human tumor cells, growth and apoptosis; assay type: cell-based; settings: 200 ng/ml; 3 days culture; 10% serum
Source text: Because cell lines might be more susceptible to growth inhibition and apoptosis, the effects of MA on short-term cultured human tumor cells were investigated. The cells were obtained from biopsied specimens and immediately cultured (primary cultures). The results were similar to the results with tumor cell lines. […] FIG. 3, Panels A and B are representative results with primary breast and prostate carcinomas respectively. These pro-apoptotic effects of MA on human tumor cells were with 10% serum rather than the lower concentrations sometimes used to make cells more susceptible to apoptosis.
More extensive studies of primary human tumor cells were carried out utilizing confocal microscopy.
With the exception of the kidney carcinoma, which was a biopsy sample direct from the tumor, the samples were from pleural effusions which developed after metastasis to the lung. The breast, prostate, and colon carcinomas were freshly obtained and immediately cultured, whereas the lung and kidney carcinomas went through 22 and 18 passes respectively before they were used in these studies. All cells were examined after 3 days culture in the presence or absence of MA (200 ng/ml) or other treatments. […]

[8] = system: B16 melanoma; assay: Pro-apoptotic effect on cultured B16 melanoma cells; assay type: cell-based, mouse; settings: same dose range as cultured human tumor cells
Protocol: B16 melanoma and Lewis lung (LL) carcinoma cells were first shown to be susceptible to the pro-apoptotic effects of MA (FIG. 6, Panels C and D) at the same dose range used with cultured human tumor cells. The tumor cells grown in standard culture conditions were used to generate metastatic cancers in pathogen-free 6-8 week old C57/BL mice (Charles River). In one set of experiments, the animals were treated with MAS1 or MAS2 at two doses, 0.1 ug or 1.0 ug either in a pre-treatment protocol (two subcutaneous inoculations 24 and 48 hrs before transplanting the tumor cells).

[9] = system: SIVMAC 251; assay: SIVMAC 251 infected rhesus macaques; assay type: in vivo; settings: end-stage disease
Source text: Certain strains of SIV produce an AIDS-like illness in susceptible monkeys. Among them SIVMAC 251 induces disease in rhesus monkeys similar to AIDS in humans only with much greater rapidity.^174 Therapy with purified MA of 3 monkeys with end-stage disease infected 13-14 mos earlier was initiated when the animals were losing weight, highly viremic (plasma virus 0.5 to 3×10^6 copies of SIV RNA/ml by NASBA), and developing pancytopenia. […] In contrast, most untreated animals died by this period. Though the limitation of animal number precludes strong conclusions related to survival.
Far more impressive were experiments performed soon after infection (3 weeks). In these experiments, crude urinary preparations containing MA, but not crude fractions lacking MA, were inoculated subcutaneously. Using a 10^4.5 TCID50 of cell free SIVmac 251, the characteristic rise in SIV p27, reduction of CD4+ T-cells, and weight loss, which occurred in the untreated animals, was prevented in MA treated animals. The untreated animals died before 6 mos. […] However, stopping therapy led to rapid onset of virus production and development of AIDS-like disease.

[10] = Toxicity in animal studies; assay type: in vivo, rats, mice; settings: incl. rhesus macaques 0.2 mg/kg for several months
Protocol: as §2

[11] = system: human bone marrow stem cells; assay: Engraftment of ex vivo expanded hematopoietic progenitor cells in BNX-XID mice
Source text: The inventors also investigated the effect of MA on engraftment of human bone marrow stem cells [CD34^+, CD38″ cells, long term cultures after 4 mos, and stromal free cultures] ex vivo expanded hematopoietic progenitor cells in Rats irradiated [Sprague DAwley, 450 Rad] and immunodeficient mice [SCID or BNX-XID mice].
Measurement of short-term hematopoietic reconstitution kinetics and long term repopulating ability. Just prior to implantation, SCID, BNX-XID-immunodeficient mice and Sprague Dawley rats were exposed to 450 rad total body γ-irradiation. […] But the SCID and BNX-XID immunodeficient mice were repopulated by the cultured, treated human cells.

[12] = biological target: T1, hCG receptor (Homo sapiens, UniProt P22888); assay: hCG receptor binding
T1 construct: host or cells: unspecified cells
T1 sequence (P22888 27-699): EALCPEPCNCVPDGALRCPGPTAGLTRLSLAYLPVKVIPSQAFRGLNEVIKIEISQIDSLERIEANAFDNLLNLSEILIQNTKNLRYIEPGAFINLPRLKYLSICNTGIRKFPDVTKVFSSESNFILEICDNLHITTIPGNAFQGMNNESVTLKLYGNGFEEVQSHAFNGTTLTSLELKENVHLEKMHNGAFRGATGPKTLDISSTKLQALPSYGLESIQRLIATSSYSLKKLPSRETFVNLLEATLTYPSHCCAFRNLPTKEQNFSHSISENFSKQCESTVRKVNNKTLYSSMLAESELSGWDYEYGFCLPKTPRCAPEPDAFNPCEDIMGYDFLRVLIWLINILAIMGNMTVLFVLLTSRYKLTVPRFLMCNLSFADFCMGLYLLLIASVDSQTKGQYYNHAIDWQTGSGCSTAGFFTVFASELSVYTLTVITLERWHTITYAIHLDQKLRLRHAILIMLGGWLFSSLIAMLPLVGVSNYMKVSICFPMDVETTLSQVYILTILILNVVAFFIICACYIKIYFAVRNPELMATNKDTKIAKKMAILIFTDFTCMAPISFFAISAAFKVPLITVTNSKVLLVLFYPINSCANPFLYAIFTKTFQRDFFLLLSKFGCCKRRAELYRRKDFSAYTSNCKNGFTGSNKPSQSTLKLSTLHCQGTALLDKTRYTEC
Source text: In this regard, unusual β-hCG gene transcripts have been known for several years,^207 and as noted above, among the several related heterodimeric glycoprotein hormones, only β-hCG has multiple genes.

Sequence: VVCNYRDVRFESIRLPGCPRGVNPVVSYAVALSCQ [MA]
- induction of apoptosis [1]: induced apoptosis
- induction of apoptosis [2]: induced apoptosis
- induction of apoptosis [3]: induced apoptosis
- induction of apoptosis [4]: induced apoptosis
- induction of apoptosis [5]: induced apoptosis
- inhibition of growth or apoptosis of proliferating normal fibroblasts, HUVEC, PHA-stimulated lymphocytes [6]: no inhibition of growth or evidence of apoptosis
- effect on morphology of primary human fibroblasts, cord blood CD34+ cells, CD4+ T cells, macrophages ([6]; 2000 ng/ml): no effect
- cytopathogenicity / toxic side effects on normal cells in vitro ([6]; concentration ranges and time periods reported): no toxic side effects; also recorded: no cytopathogenicity
- cytotoxicity on normal cells at higher concentrations ([6]; up to 10× the effective concentrations): no evident cytotoxic effects; also recorded: no evident cytotoxicity
- growth inhibition and apoptosis of primary human tumor cells [7]: inhibited growth and induced apoptosis; also recorded: Rapid induction of apoptosis
- susceptibility to pro-apoptotic effects [8]: susceptible
- weight and T-cell number [9]: stabilization and in some instances even increase
- change in SIV titer ([9]; 0.2 mg/kg 3 times weekly, 6 mos): no significant change
- deaths in observation period ([9]; 6 mos): none of the 3 animals died
- toxic side effects grossly or by blood counts [10]: no evident toxic side effects
- CD4 [11]: 3%
- CD14 [11]: 1%
- CD34 [11]: 37%
- binding to the hCG receptor [12]: does not bind
